# Key:
# [1] = DFT-predicted CO2 binding free energy and charge/bond-order analysis of phosphido-boranes
# Experimental: (§1) All Density Functional Theory calculations were performed using the Jaguar v10.9 software from Schrodinger Inc. All calculations utilized the M06-2X meta-GGA functional with the D3 empirical correction for London Dispersion forces.^21, 22
# (§2) All atoms were described by the 6-311G**++ Pople basis set,^23 augmented with polarization and diffuse functions.
# (§3) All calculations included a continuum solvent treatment described by the Polarizable Continuum Model (CPCM).^24
# (§4) Unless otherwise noted, we used solvent parameters matching tetrahydrofuran (dielectric constant=7.6, probe radius=2.52).
# (§5) Vibrational frequency calculations were performed to confirm that all geometries are true minima (no negative eigenmodes of the Hessian) and to compute thermochemical properties such as enthalpy (H), entropy (S), and free energies (G) at 298.15 K. Because librational modes are hindered in solvent media, we corrected our free energies by reducing translational and rotational entropy modes by 50%.
# [2] = DFT transition state barrier for CO2 binding; settings: Li+ coordinated to a CO2 oxygen and the hydrides of BH3−
# Experimental: as §1, §2, §3, §4, §5
# [3] = CO2 gas bubbled through phosphido-borane salt in THF, NMR analysis; settings: CO2 at 1 atm, room temperature
# Experimental: Here 0.2218 g of the resulting phosphido-borane was dissolved in 3 ml of tetrahydrofuran (THF) in a 10 ml valve. Here 2 ml of THF was used to dissolve 0.1856 g of lithium bis(trimethylsilyl)amide (LiHMDS). The solution of LiHMDS was added drop wise to the solution of Li[Ph2PBH3] to minimize side reactions.
# CO2 gas was then bubbled through lithiated anionic phosphido-borane salt at 1 atm and room temperature for about 10 mins to saturate it with CO2.
# A typical one pot procedure for preparing the CO2 adducts was adding a solution of Ph2PHBH3 (5.314 mmol, in 4 ml of THF) to solution of MHMDs (5.314 mmol, in 4 ml of THF) dropwisely. An aliquot of the resulting was analyzed with the nmr to confirm the complete formation of M(Ph2PBH3) salt. The bulk solution was then saturated with CO2 gas under standard atmospheric pressure and temperature. The product was then crushed out with hexanes resulting in a whitish precipitate. Yield 98.5%
substance,measurement,setting,value
anionic diphenylphosphido-borane [BoPh 4],increase in binding energy on increasing counterion distance,[1]; Li+ distance from the O—BH3 pocket increased by 0.35 Å,+5.9 kcal
same,increase of overall ΔG by explicit solvation,[1]; explicit THF solvation vs continuum,+2.9 kcal/mol
same,reduction of ΔG‡ relative to Na+,[2],~2 kcal/mol
same,CO2 binding observed in experiment,[3]; listed as LiPh2PBH3,binds successfully with the CO2 molecule
same,CO2 binding observed in experiment,[3]; listed as lithiated anionic phosphido-borane salt,formation of P—CO2 adducts
